Measured values from the NIST ThermoML archive (doi:10.1016/j.fluid.2005.07.009).

Experiments:
[1] = molar heat capacity at constant pressure; conditions: 101.33 kPa, Small sample (50 mg) DSC
[2] = Molar enthalpy of transition or fusion; conditions: Crystal; DSC

CCCCCCN [1-hexanamine]
[1]
Conditions	molar heat capacity at constant pressure [J/K/mol]
205.12 K, Crystal	135.48
206.53 K, Crystal	137.42
207.27 K, Crystal	138.49
208.18 K, Crystal	140.02
209.16 K, Crystal	140.47
210.21 K, Crystal	141.21
211.81 K, Crystal	141.65
212.3 K, Crystal	141.8
213.41 K, Crystal	141.86
214.27 K, Crystal	141.99
215.45 K, Crystal	143.94
216.17 K, Crystal	144.89
217.45 K, Crystal	145.13
218.13 K, Crystal	145.21
219.48 K, Crystal	146.21
220.34 K, Crystal	147.15
221.19 K, Crystal	148.86
222.04 K, Crystal	149.71
223.38 K, Crystal	151.47
224.66 K, Crystal	152.29
225.39 K, Crystal	153.27
226.42 K, Crystal	155.08
228.17 K, Crystal	156.72
230.11 K, Crystal	160.13
267.26 K, Liquid	248.4
268.63 K, Liquid	248.52
269.54 K, Liquid	248.61
270.16 K, Liquid	248.66
271.24 K, Liquid	248.67
272.69 K, Liquid	248.95
273.56 K, Liquid	249.01
274.18 K, Liquid	249.09
275.88 K, Liquid	249.12
276.66 K, Liquid	249.26
277.16 K, Liquid	249.31
278.69 K, Liquid	249.34
279.94 K, Liquid	249.36
280.47 K, Liquid	249.45
281.8 K, Liquid	249.47
282.34 K, Liquid	249.48
283.41 K, Liquid	249.51
284.45 K, Liquid	249.55
285.4 K, Liquid	249.79
286.56 K, Liquid	249.85
287.39 K, Liquid	249.86
288.43 K, Liquid	250.09
289.09 K, Liquid	250.12
290.21 K, Liquid	250.23
292.36 K, Liquid	250.46
293.15 K, Liquid	250.5
295.59 K, Liquid	250.98

Conditions	Molar enthalpy of transition or fusion [kJ/mol]
[2]	25
